Laboratory results from patent US20240067631A1, “PYRAZOLE DERIVATIVES USEFUL AS NAMPT MODULATORS” (Cytokinetics, Inc., priority 2020, published 2024).

Molecular target: human NAMPT (Homo sapiens (Human), UniProt P43490)
Experiment: Human recombinant enzyme assay (NMN fluorescence biochemical assay)
Settings: 6 nM human NAMPT, 60 min; for AC1.4 Human: concentration of compound that generates 40% higher activity over basal; for EC50: concentration that gives half-maximal activation
Experimental: Compounds described herein were assayed for their ability to stimulate the synthesis of nicotinamide mononucleotide (NMN) by the enzyme NAMPT. The human recombinant enzyme assay measures the activation of the enzyme activity by compounds using recombinant enzyme and substrates in a buffered cell-free system. The assay conditions closely mimic cellular environments. Dose responses were measured using an assay to detect the formation of nicotinamide mono-nucleotide. All experiments were performed in the 384-well format. Generally, 0.5 μL of DMSO containing varying concentrations of the test compound was mixed with 10 μL of the enzyme reagent solution. Enzyme reactions were initiated with the addition of 10 μL of a solution containing the substrates. The final assay conditions were as follows: 6 nM human NAMPT, 2.5 mM ATP, […] in 50 mM HEPES, pH 7.2, 1 mM DTT, 1 mM CHAPS 50 mM NaCl, 100 mM MgCl2. Following an incubation of 60 min at ambient temperature, 10 μL of 20% acetophenone in DMSO was added, followed by 10 μL of 2 M KOH and 40 μL of formic acid. The plates were read for fluorescence (Excitation/Emission=355 nm/460 nm) using an EnVision plate reader after 40 mins of incubation at ambient temperature. The potency measurements for compounds, are quantified and represented as AC1.4 (the concentration of compounds that generates 40% higher activity over basal) and EC50 (concentration of the compound that gives half-maximal activation).

Sequence of human NAMPT (P43490 whole entry): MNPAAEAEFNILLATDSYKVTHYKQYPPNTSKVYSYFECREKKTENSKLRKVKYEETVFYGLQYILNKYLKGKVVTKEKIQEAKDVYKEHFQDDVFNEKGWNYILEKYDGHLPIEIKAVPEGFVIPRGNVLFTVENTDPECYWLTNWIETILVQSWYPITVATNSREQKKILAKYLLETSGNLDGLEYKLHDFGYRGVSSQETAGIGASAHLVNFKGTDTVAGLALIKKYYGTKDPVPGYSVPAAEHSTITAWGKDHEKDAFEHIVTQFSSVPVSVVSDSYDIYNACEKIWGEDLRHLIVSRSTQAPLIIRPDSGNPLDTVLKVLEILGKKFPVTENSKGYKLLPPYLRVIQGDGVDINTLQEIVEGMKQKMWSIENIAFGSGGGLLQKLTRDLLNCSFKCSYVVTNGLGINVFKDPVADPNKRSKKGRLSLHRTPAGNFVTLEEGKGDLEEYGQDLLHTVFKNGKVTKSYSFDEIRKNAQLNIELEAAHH

Cc1nc(C(=O)N2CC(O)(c3ccccc3F)C2)nc(NCCc2cn[nH]c2)c1C [Compound 77, (4-((2-(1H-pyrazol-4-yl)ethyl)amino)-5,6-dimethylpyrimidin-2-yl)(3-(2-fluorophenyl)-3-hydroxyazetidin-1-yl)methanone]
AC1.4 Human: 0.8835 µM | EC50: 13.7 µM

Cc1cccc([C@@H](C)NC(=O)c2nc(C)c(C)c(NCCc3cn[nH]c3)n2)n1 [Compound 78, (R)-4-((2-(1H-pyrazol-4-yl)ethyl)amino)-5,6-dimethyl-N-(1-(6-methylpyridin-2-yl)ethyl)pyrimidine-2-carboxamide]
AC1.4 Human: 0.81 µM | EC50: 5.62 µM

Cc1nc(C(=O)NC2CC(F)(F)c3ccccc32)nc(NCCc2cn[nH]c2)c1C (centres unmarked) [Compound 79, 4-((2-(1H-pyrazol-4-yl)ethyl)amino)-N-(3,3-difluoro-2,3-dihydro-1H-inden-1-yl)-5,6-dimethylpyrimidine-2-carboxmaide]
AC1.4 Human: 0.8395 µM | EC50: 4.62 µM

Cc1nc(C(=O)N2CCOCC2c2ccccc2Cl)nc(NCCc2cn[nH]c2)c1C (centres unmarked) [Compound 80, (4-((2-(1H-pyrazol-4-yl)ethyl)amino)-5,6-dimethylpyrimidin-2-yl)(3-(2-chlorophenyl)morpholino)methanone]
AC1.4 Human: 0.877 µM | EC50: 10.4 µM

Cc1nc(C(=O)N2CC(OC(F)(F)F)C2)nc(NCCc2cn[nH]c2)c1C [Compound 81, (4-((2-(1H-pyrazol-4-yl)ethyl)amino)-5,6-dimethylpyrimidin-2-yl)(3-(trifluoromethoxy)azetidin-1-yl)methanone]
AC1.4 Human: 0.891 µM | EC50: 5.98 µM

COC[C@@H](NC(=O)c1nc(C)c(C)c(NCCc2cn[nH]c2)n1)c1cccc(F)c1 [Compound 82, (S)-4-((2-(1H-pyrazol-4-yl)ethyl)amino)-N-(1-(3-fluorophenyl)-2-methoxyethyl)-5,6-dimethylpyrimidine-2-carboxamide]
AC1.4 Human: 0.966 µM | EC50: 3.99 µM

Cc1nc(C(=O)NC(C)(C)c2ccc(F)cc2)nc(NCCc2cn[nH]c2)c1C [Compound 83, 4-((2-(1H-pyrazol-4-yl)ethyl)amino)-N-(2-(4-fluorophenyl)propan-2-yl)-5,6-dimethylpyrimidine-2-carboxamide]
AC1.4 Human: 0.9695 µM | EC50: 14.5 µM

Cc1nc(C(=O)N2CC(CO)(c3ccccc3)C2)nc(NCCc2cn[nH]c2)c1C [Compound 84, (4-((2-(1H-pyrazol-4-yl)ethyl)amino)-5,6-dimethylpyrimidin-2-yl)(3-(hydroxymethyl)-3-phenylazetidin-1-yl)methanone]
AC1.4 Human: 31.857 µM | EC50: 40.2 µM

Cc1nc(C(=O)NC2(Cc3ccc(F)cc3Cl)CCOCC2)nc(NCCc2cn[nH]c2)c1C [Compound 85, 4-((2-(1H-pyrazol-4-yl)ethyl)amino)-N-(4-(2-chloro-4-fluorobenzyl)tetrahydro-2H-pyran-4-yl)-5,6-dimethylpyrimidine-2-carboxamide]
AC1.4 Human: 1.072 µM | EC50: 8.35 µM

Cc1nc(C(=O)N2CCC[C@@H]2c2ccc(F)cc2)nc(NCCc2cn[nH]c2)c1C [Compound 86, (R)-(4-((2-(1H-pyrazol-4-yl)ethyl)amino)-5,6-dimethylpyrimidin-2-yl)(2-(4-flurophenyl)pyrrolidin-1-yl)methanone]
AC1.4 Human: 1.1115 µM | EC50: 8.04 µM

Cc1nc(C(=O)N[C@@H](C)c2ccncc2)nc(NCCc2cn[nH]c2)c1C [Compound 87, (S)-4-((2-(1H-pyrazol-4-yl)ethyl)amino)-5,6-dimethyl-N-(1-(pyridin-4-yl)ethyl)pyrimidine-2-carboxamide]
AC1.4 Human: 1.1375 µM | EC50: 13.3 µM

COc1cccc(CNC(=O)c2nc(C)c(C)c(NCCc3cn[nH]c3)n2)n1 [Compound 88, 4-((2-(1H-pyrazol-4-yl)ethyl)amino)-N-((6-methoxypyridin-2-yl)methyl)-5,6-dimethylpyrimidine-2-carboxamide]
AC1.4 Human: 1.1435 µM | EC50: 7.21 µM

Cc1nc(C(=O)N2CC(C)(c3ccccc3)C2)nc(NCCc2cn[nH]c2)c1C [Compound 89, (4-((2-(1H-pyrazol-4-yl)ethyl)amino)-5,6-dimethylpyrimidin-2-yl)(3-methyl-3-phenylazetidin-1-yl)methanone]
AC1.4 Human: 4.9195 µM | EC50: 37.3 µM

Cc1nc(C(=O)NC(C)c2ccon2)nc(NCCc2cn[nH]c2)c1C (centres unmarked) [Compound 90, 4-((2-(1H-pyrazol-4-yl)ethyl)amino)-N-(1-(isoxazol-3-yl)ethyl)-5,6-dimethylpyrimidine-2-carboxamide]
AC1.4 Human: 1.17 µM | EC50: 9.24 µM

Cc1nc(C(=O)N2CC(F)(F)C2)nc(NCCc2cn[nH]c2)c1C [Compound 91, (4-((2-(1H-pyrazol-4-yl)ethyl)amino)-5,6-dimethylpyrimidin-2-yl)(3,3-difluoroazetidin-1-yl)methanone]
AC1.4 Human: 0.9345 µM | EC50: 7.76 µM

COCC(c1ccc(F)cc1)N(C)C(=O)c1nc(C)c(C)c(NCCc2cn[nH]c2)n1 (centres unmarked) [Compound 92, 4-((2-(1H-pyrazol-4-yl)ethyl)amino)-N-(1-(4-fluorophenyl)-2-methoxyethyl)-N,5,6-trimethylpyrimidine-2-carboxamide]
AC1.4 Human: 1.1995 µM | EC50: 5.68 µM

Cc1nc(C(=O)NCc2ccccn2)nc(NCCc2cn[nH]c2)c1C [Compound 93, 4-((2-(1H-pyrazol-4-yl)ethyl)amino)-5,6-dimethyl-N-(pyridin-2-ylmethyl)pyrimidine-2-carboxamide]
AC1.4 Human: 1.244 µM | EC50: 14.9 µM

Cc1nc(C(=O)NCC2(c3ccccc3)COC2)nc(NCCc2cn[nH]c2)c1C [Compound 94, 4-((2-(1H-pyrazol-4-yl)ethyl)amino)-5,6-dimethyl-N-((3-phenyloxetan-3-yl)methyl)pyrimidine-2-carboxamide]
AC1.4 Human: 1.271 µM | EC50: 8.13 µM

Cc1nc(C(=O)N[C@H](C)c2ccncc2)nc(NCCc2cn[nH]c2)c1C [Compound 95, (R)-4-((2-(1H-pyrazol-4-yl)ethyl)amino)-5,6-dimethyl-N-(1-(pyridin-4-yl)ethyl)pyrimidine-2-carboxamide]
AC1.4 Human: 1.2975 µM | EC50: 11 µM

Cc1nc(C(=O)N2CCC(C#N)(c3ccccc3)CC2)nc(NCCc2cn[nH]c2)c1C [Compound 96, 1-(4-((2-(1H-pyrazol-4-yl)ethyl)amino)-5,6-dimethylpyrimidine-2-carbonyl)-4-phenylpiperidine-4-carbonitrile]
AC1.4 Human: 1.3075 µM | EC50: 8.51 µM

Cc1nc(C(=O)N2CC(O)(C3CC3)C2)nc(NCCc2cn[nH]c2)c1C [Compound 97, (4-((2-(1H-pyrazol-4 yl)ethyl)amino)-5,6-dimethylpyrimidin-2-yl)(3-cyclopropyl-3-hydroxyazetidin-1-yl)methanone]
AC1.4 Human: 6.337 µM | EC50: 22.3 µM

Cc1nc(C(=O)NC(c2ccccc2F)c2nccn2C)nc(NCCc2cn[nH]c2)c1C (centres unmarked) [Compound 98, 4-((2-(1H-pyrazol-4-yl)ethyl)amino)-N-((2-fluorophenyl)(1-methyl-1H-imidazol-2-yl)methyl)-5,6-dimethylpyrimidine-2-carboxamide]
AC1.4 Human: 1.3275 µM | EC50: 5.15 µM

Cc1nc(C(=O)N[C@@H](C)c2ccccc2Cl)nc(NCCc2cn[nH]c2)c1C [Compound 99, (S)-4-((2-(1H-pyrazol-4-yl)ethyl)amino)-N-(1-(2-chlorophenyl)ethyl)-5,6-dimethylpyrimidine-2-carboxamide]
AC1.4 Human: 1.5915 µM | EC50: 20 µM

Cc1nc(C(=O)N2CC(C(F)(F)F)C2)nc(NCCc2cn[nH]c2)c1C [Compound 100, (4-((2-(1H-pyrazol-4-yl)ethyl)amino)-5,6-dimethylpyrimidin-2-yl)(3-(trifluoromethyl)azetidin-1-yl)methanone]
AC1.4 Human: 6.3085 µM | EC50: 40.2 µM

COC1(c2ccccc2)CN(C(=O)c2nc(C)c(C)c(NCCc3cn[nH]c3)n2)C1 [Compound 102, (4-((2-(1H-pyrazol-4-yl)ethyl)amino)-5,6-dimethylpyrimidin-2-yl)(3-methoxy-3-phenylazetidin-1-yl)methanone]
AC1.4 Human: 2.0105 µM | EC50: 12.9 µM

Cc1nc(C(=O)NC(C)c2cncs2)nc(NCCc2cn[nH]c2)c1C (centres unmarked) [Compound 103, 4-((2-(1H-pyrazol-4-yl)ethyl)amino)-5,6-dimethyl-N-(1-(thiazol-5-yl)ethyl)pyrimidine-2-carboxamide]
AC1.4 Human: 1.6375 µM | EC50: 21.5 µM

Cc1nc(C(=O)NCC(C)(O)c2ccccc2)nc(NCCc2cn[nH]c2)c1C (centres unmarked) [Compound 104, 4-((2-(1H-pyrazol-4-yl)ethyl)amino)-N-(2-hydroxy-2-phenylpropyl)-5,6-dimethylpyrimidine-2-carboxamide]
AC1.4 Human: 1.6495 µM | EC50: 11.3 µM

Cc1nc(C(=O)NCc2n[nH]c3ccccc23)nc(NCCc2cn[nH]c2)c1C [Compound 105, N-((1H-indazol-3-yl)methyl)-4-((2-(1H-pyrazol-4-yl)ethyl)amino)-5,6-dimethylpyrimidine-2-carboxamide]
AC1.4 Human: 1.669 µM | EC50: 2.52 µM
